What is called inhibition is the relative decrease from the control value, in per cent. As a reminder, the IC50 is the concentration needed to halve the response being measured.

Where a name gives a salt, the structure may show the parent alone.

For one experiment, the target named is human norepinephrine transporter (hNET) (Homo sapiens, UniProt P23975). Nature of the experiment: hNET uptake, Protocol B: cell based norepinephrine reuptake assay using recombinant hNET (MDCK-Net6 cells). Conditions: MDCK-Net6, read-out: NE uptake (Protocol B) % inhibition @ 6 uM.
Chain of human norepinephrine transporter (hNET) (P23975 whole entry): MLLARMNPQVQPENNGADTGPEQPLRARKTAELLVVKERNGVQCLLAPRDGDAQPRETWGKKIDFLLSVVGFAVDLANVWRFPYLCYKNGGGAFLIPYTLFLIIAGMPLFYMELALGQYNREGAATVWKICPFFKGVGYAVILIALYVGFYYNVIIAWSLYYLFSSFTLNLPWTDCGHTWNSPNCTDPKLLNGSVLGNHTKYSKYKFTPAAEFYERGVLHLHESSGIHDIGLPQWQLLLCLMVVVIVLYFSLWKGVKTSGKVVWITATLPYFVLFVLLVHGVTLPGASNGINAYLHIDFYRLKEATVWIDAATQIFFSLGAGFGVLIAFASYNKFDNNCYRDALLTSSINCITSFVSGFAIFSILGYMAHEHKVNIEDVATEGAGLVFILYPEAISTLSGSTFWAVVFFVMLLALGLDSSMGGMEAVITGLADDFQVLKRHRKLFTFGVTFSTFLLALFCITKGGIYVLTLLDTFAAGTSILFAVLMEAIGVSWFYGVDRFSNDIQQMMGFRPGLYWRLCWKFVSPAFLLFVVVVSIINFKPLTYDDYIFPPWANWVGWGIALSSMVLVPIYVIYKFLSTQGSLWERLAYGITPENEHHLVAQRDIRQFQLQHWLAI
Take `CN(C)CCCCN1c2ccccc2N(c2ccc(F)cc2Cl)S1(=O)=O` [Example 88, 4-[3-(2-chloro-4-fluorophenyl)-2,2-dioxido-2,1,3-benzothiadiazol-1(3H)-yl]-N,N-dimethylbutan-1-amine hydrochloride]: the inhibition at 6 µM came out at 57%.

For `CN(C)CCCCCN1c2ccccc2N(c2ccc(F)cc2Cl)S1(=O)=O` [Example 90, 5-[3-(2-chloro-4-fluorophenyl)-2,2-dioxido-2,1,3-benzothiadiazol-1(3H)-yl]-N,N-dimethylpentan-1-amine hydrochloride], the inhibition at 6 µM stood at 49%.

As to `O=S1(=O)N(CCCNCC(F)(F)F)c2ccccc2N1c1ccc(F)c(F)c1` [Example 111, 3-[3-(3,4-difluorophenyl)-2,2-dioxido-2,1,3-benzothiadiazol-1(3H)-yl]-N-(2,2,2-trifluoroethyl)propan-1-amine], the inhibition at 6 µM amounted to 0%.

Still in this experiment, the particulars now being: NE uptake (Protocol B) IC50 (nM), MDCK-Net6 cells, 3H-NE 16 nM.
On to `CNCCCCN1c2ccccc2N(c2c(F)cc(F)cc2F)S1(=O)=O` [Example 81, 4-[2,2-Dioxido-3-(2,4,6-trifluorophenyl)-2,1,3-benzothiadiazol-1(3H)-yl]-N-methylbutan-1-amine hydrochloride], for which the 50% inhibitory concentration (IC50) came to 19 nM.

`CNCCCCN1c2ccccc2N(c2ccc(F)cc2)S1(=O)=O` [Example 82, 4-[3-(4-Fluorophenyl)-2,2-dioxido-2,1,3-benzothiadiazol-1(3H)-yl]-N-methylbutan-1-amine hydrochloride]: the IC50 came to 46 nM.

`CNCCCCN1c2ccccc2N(c2c(F)cccc2F)S1(=O)=O` [Example 83, 4-[3-(2,6-Difluorophenyl)-2,2-dioxido-2,1,3-benzothiadiazol-1(3H)-yl]-N-methylbutan-1-amine hydrochloride]: the IC50 stood at 2 nM.

Turning to `O=S1(=O)N(CCCNC2CC2)c2ccccc2N1c1c(F)cccc1F` [Example 84, N-{3-[3-(2,6-Difluorophenyl)-2,2-dioxido-2,1,3-benzothiadiazol-1(3H)-yl]propyl}cyclopropanamine hydrochloride], the IC50 amounted to 21 nM.

Consider `O=S1(=O)N(CCCNC2CC2)c2ccccc2N1c1ccc(F)cc1F` [Example 85, N-{3-[3-(2,4-Difluorophenyl)-2,2-dioxido-2,1,3-benzothiadiazol-1(3H)-yl]propyl}cyclopropanamine hydrochloride], for which the 50% inhibitory concentration (IC50) is 203 nM.

As for `O=S1(=O)N(CCCCNC2CC2)c2ccccc2N1c1c(F)cccc1F` [Example 86, N-{4-[3-(2,6-Difluorophenyl)-2,2-dioxido-2,1,3-benzothiadiazol-1(3H)-yl]butyl}cyclopropanamine hydrochloride], the IC50 came to 21 nM.

With `CNCCCCN1c2ccccc2N(c2ccc(F)cc2Cl)S1(=O)=O` [Example 87, 4-[3-(2-chloro-4-fluorophenyl)-2,2-dioxido-2,1,3-benzothiadiazol-1(3H)-yl]-N-methylbutan-1-amine hydrochloride], the IC50 worked out at 82 nM.

On to `CNCCCCCN1c2ccccc2N(c2ccc(F)cc2Cl)S1(=O)=O` [Example 89, 5-[3-(2-chloro-4-fluorophenyl)-2,2-dioxido-2,1,3-benzothiadiazol-1(3H)-yl]-N-methylpentan-1-amine hydrochloride], for which the IC50 turned out to be 2110 nM.

For `CNCCCN1c2ccccc2N(c2ccc(OC)cc2F)S1(=O)=O` [Example 91, 3-[3-(2-fluoro-4-methoxyphenyl)-2,2-dioxido-2,1,3-benzothiadiazol-1(3H)-yl]-N-methylpropan-1-amine hydrochloride], the IC50 amounted to 325 nM.

Take `CNCCCN1c2ccccc2N(c2ccc(O)cc2F)S1(=O)=O` [Example 92, 3-fluoro-4-{3-[3-(methylamino)propyl]-2,2-dioxido-2,1,3-benzothiadiazol-1(3H)-yl}phenol hydrochloride]: the 50% inhibitory concentration (IC50) stood at 3 nM.

Turning to `CNCCCCN1c2ccccc2N(c2ccc(O)cc2F)S1(=O)=O` [Example 93, 3-fluoro-4-{3-[4-(methylamino)butyl]-2,2-dioxido-2,1,3-benzothiadiazol-1(3H)-yl}phenol hydrochloride], the IC50 was found to be 3 nM.

Regarding `CNCCCN1c2ccccc2N(c2ccc(Cl)cc2F)S1(=O)=O` [Example 95, 3-[3-(4-chloro-2-fluorophenyl)-2,2-dioxido-2,1,3-benzothiadiazol-1(3H)-yl]-N-methylpropan-1-amine], the 50% inhibitory concentration (IC50) was determined as 30 nM.

Take `O=S1(=O)N(CCCNC2CC2)c2ccccc2N1c1ccccc1` [Example 96, N-[3-(2,2-dioxido-3-phenyl-2,1,3-benzothiadiazol-1(3H)-yl)propyl]cyclopropanamine]: the half-inhibitory concentration (IC50) was found to be 113 nM.

Turning to `O=S1(=O)N(CCCNC2CC2)c2ccccc2N1c1ccccc1F` [Example 97, N-{3-[3-(2-fluorophenyl)-2,2-dioxido-2,1,3-benzothiadiazol-1(3H)-yl]propyl}cyclopropanamine], the IC50 worked out at 21 nM.

Consider `CNCCCN1c2ccccc2N(c2ccc(Cl)cc2C)S1(=O)=O` [Example 100, 3-[3-(4-chloro-2-methylphenyl)-2,2-dioxido-2,1,3-benzothiadiazol-1(3H)-yl]-N-methylpropan-1-amine], for which the IC50 stood at 370 nM.

In the case of `CNCCCCCCN1c2ccccc2N(c2ccccc2F)S1(=O)=O` [Example 101, 6-[3-(2-fluorophenyl)-2,2-dioxido-2,1,3-benzothiadiazol-1(3H)-yl]-N-methylhexan-1-amine], the IC50 was 1160 nM.

As for `NCCCCCCN1c2ccccc2N(c2ccccc2F)S1(=O)=O` [Example 102, 6-[3-(2-fluorophenyl)-2,2-dioxido-2,1,3-benzothiadiazol-1(3H)-yl]hexan-1-amine], the half-maximal inhibitory concentration (IC50) was 26 nM.

Consider `CN(C)CCCCCCN1c2ccccc2N(c2ccccc2F)S1(=O)=O` [Example 103, 6-[3-(2-fluorophenyl)-2,2-dioxido-2,1,3-benzothiadiazol-1(3H)-yl]-N,N-dimethylhexan-1-amine], for which the IC50 is 1200 nM.

For the molecule `CNCCCCN1c2ccccc2N(c2ccc(C)cc2F)S1(=O)=O` [Example 104, 4-[3-(2-fluoro-4-methylphenyl)-2,2-dioxido-2,1,3-benzothiadiazol-1(3H)-yl]-N-methylbutan-1-amine], the IC50 stood at 26 nM.

On to `Cc1ccc(N2c3ccccc3N(CCCCN)S2(=O)=O)c(F)c1` [Example 105, 4-[3-(2-fluoro-4-methylphenyl)-2,2-dioxido-2,1,3-benzothiadiazol-1(3H)-yl]butan-1-amine], for which the IC50 was determined as 125 nM.

Turning to `Cc1ccc(N2c3ccccc3N(CCCCN(C)C)S2(=O)=O)c(F)c1` [Example 106, 4-[3-(2-fluoro-4-methylphenyl)-2,2-dioxido-2,1,3-benzothiadiazol-1(3H)-yl]-N,N-dimethylbutan-1-amine], the IC50 is 591 nM.

Take `CCNCCCCN1c2ccccc2N(c2ccc(C)cc2F)S1(=O)=O` [Example 107, N-ethyl-4-[3-(2-fluoro-4-methylphenyl)-2,2-dioxido-2,1,3-benzothiadiazol-1(3H)-yl]butan-1-amine]: the half-inhibitory concentration (IC50) came to 582 nM.

`CNCCCN1c2ccccc2N(c2ccc(C)cc2F)S1(=O)=O` [Example 108, 3-[3-(2-fluoro-4-methylphenyl)-2,2-dioxido-2,1,3-benzothiadiazol-1(3H)-yl]-N-methylpropan-1-amine]: the half-inhibitory concentration (IC50) turned out to be 4 nM.

In the case of `CNCCCN1c2ccccc2N(c2ccc(F)c(F)c2)S1(=O)=O` [Example 109, 3-[3-(3,4-difluorophenyl)-2,2-dioxido-2,1,3-benzothiadiazol-1(3H)-yl]-N-methylpropan-1-amine], the IC50 was 20 nM.

Regarding `CNCCCCN1c2ccccc2N(c2ccc(F)c(F)c2)S1(=O)=O` [Example 110, 4-[3-(3,4-difluorophenyl)-2,2-dioxido-2,1,3-benzothiadiazol-1(3H)-yl]-N-methylbutan-1-amine], the IC50 came to 39 nM.

Regarding `CCNCCCN1c2ccccc2N(c2ccc(F)c(F)c2F)S1(=O)=O` [Example 112, 3-[2,2-dioxido-3-(2,3,4-trifluorophenyl)-2,1,3-benzothiadiazol-1(3H)-yl]-N-ethylpropan-1-amine], the IC50 worked out at 2770 nM.

As for `CNCCCN1c2ccccc2N(c2ccc(F)c(F)c2F)S1(=O)=O` [Example 113, 3-[2,2-dioxido-3-(2,3,4-trifluorophenyl)-2,1,3-benzothiadiazol-1(3H)-yl]-N-methylpropan-1-amine], the IC50 was 109 nM.

For the molecule `CNCCCN1c2ccccc2N(c2ccc(F)cc2F)S1(=O)=O` [Example 114, 3-[3-(2,4-difluorophenyl)-2,2-dioxido-2,1,3-benzothiadiazol-1(3H)-yl]-N-methylpropan-1-amine hydrochloride], the IC50 was 11 nM.

`CNCCCCCN1c2ccccc2N(c2ccc(F)cc2F)S1(=O)=O` [Example 115, 5-[3-(2,4-difluorophenyl)-2,2-dioxido-2,1,3-benzothiadiazol-1(3H)-yl]-N-methylpentan-1-amine hydrochloride]: the concentration for half-maximal inhibition (IC50) was determined as 61 nM.

Turning to `CN(C)CCCCCN1c2ccccc2N(c2ccc(F)cc2F)S1(=O)=O` [Example 117, 5-[3-(2,4-difluorophenyl)-2,2-dioxido-2,1,3-benzothiadiazol-1(3H)-yl]-N,N-dimethylpentan-1-amine hydrochloride], the IC50 came to 7190 nM.

With `CN(C)CCCN1c2ccccc2N(c2ccc(F)cc2F)S1(=O)=O` [Example 118, 3-[3-(2,4-difluorophenyl)-2,2-dioxido-2,1,3-benzothiadiazol-1(3H)-yl]-N,N-dimethylpropan-1-amine hydrochloride], the IC50 is 153 nM.

Take `CCNCCCN1c2ccccc2N(c2ccc(F)cc2F)S1(=O)=O` [Example 119, 3-[3-(2,4-difluorophenyl)-2,2-dioxido-2,1,3-benzothiadiazol-1(3H)-yl]-N-ethylpropan-1-amine hydrochloride]: the concentration for half-maximal inhibition (IC50) is 77 nM.

For the molecule `CN(C)CCCCN1c2ccccc2N(c2ccc(F)cc2F)S1(=O)=O` [Example 120, 4-[3-(2,4-difluorophenyl)-2,2-dioxido-2,1,3-benzothiadiazol-1(3H)-yl]-N,N-dimethylbutan-1-amine hydrochloride], the IC50 stood at 411 nM.
